Read-outs that look alike come from different tables or passages of the source.
Legend:
[1] = tested on: E. coli [BL21(DE3)]; experiment: Minimal Bactericidal Concentration (MBC) measurements, E. coli; assay type: cell-based
Method: (§1) Bacterial Cell Culturing. Expression cells from frozen stock were streaked onto a kanamycin-selected lysogeny broth (LBKan) agar plate using a sterile loop and incubated overnight at 37° C. One colony was then taken from the plate the next day to inoculate 50 mL of sterile LBKan broth and shaken at 37° C. until reaching a growth concentration of 4×10^8 CFU/mL. This protocol was used for bacterial cell culture preparation in all of the experiments described below.
Minimal Bactericidal Concentration (MBC) Measurements. E. coli cells were cultured as described above and aliquoted into sterile tubes. 1%, 10%, and 100% (w/v) solutions of IL in sterile water (correcting for water percentage of the IL) were prepared and sonicated for 15 minutes at 40° C. before addition to the liquid culture. IL solutions were then added to E. coli at varying percentages (v/v), allowing calculation of the actual concentration of IL that was added to the culture. 100 μL of each solution was then spread onto an LBKan agar plate and incubated overnight at 37° C. […] Each IL solution was tested in triplicate.

[2] = tested on: MRSA [BAA-1708]; experiment: Growth inhibition / MBC of Methicillin Resistant Staphylococcus aureus (MRSA); assay type: cell-based
Method: as §1
Growth Inhibition of Methicillin Resistant Staphylococcus Aureus (MRSA). 10% (w/v) solutions of IL in sterile water were prepared similarly to the E. coli MBC experiments. ILs with anion chain lengths of 8-12 carbons at 1:2 mole ratio of choline to anion were added to MRSA at varying concentrations to determine the lowest concentration in which growth was inhibited. Concentrations were then compared to values obtained for E. coli for each solution.

[3] = Table 1, lowest IL concentration with no growth on LBKan agar plate, triplicate

Compound | E. coli MBC [1, 3] | other results
CC=CC(=O)[O-].C[N+](C)(C)CCO [CA2BE 1:1, Choline 2-Butenoate 1:1] | 1330.40 mM | –
CCCCCCCC=CC(=O)[O-].C[N+](C)(C)CCO [CA2DE 1:1, Choline 2-Decenoate 1:1] | 3.67 mM | –
CCCC=CC(=O)[O-].C[N+](C)(C)CCO [CA2HE 1:1, Choline 2-Hexenoate 1:1] | 507.63 mM | –
CCCCC=CC(=O)[O-].C[N+](C)(C)CCO [CA2HPE 1:1, Choline 2-Heptenoate 1:1] | 346.93 mM | –
CCCCCC/C=C/C(=O)O [CA2NE 1:1, Choline 2-Nonenoate 1:1] | 56.40 mM | –
CCCCCC/C=C/C(=O)O [CA2NE 1:2, Choline 2-Nonenoate 1:2] | 1.22 mM | –
CCCCC/C=C/C(=O)O [CA2OE 1:1, Choline 2-Octenoate 1:1] | 84.70 mM | –
CCC=CC(=O)[O-].C[N+](C)(C)CCO [CA2PE 1:1, Choline 2-Pentenoate 1:1] | 1151.30 mM | –
CCCCCCCC/C=C/C(=O)O [CA2UE 1:1, Choline 2-Undecenoate 1:1] | 15.08 mM | –
C=CCC(=O)[O-].C[N+](C)(C)CCO [CA3BE 1:1, Choline 3-Butenoate 1:1] | 1350.93 mM | –
CCCCCCC=CCC(=O)[O-].C[N+](C)(C)CCO [CA3DE 1:1, Choline 3-Decenoate 1:1] | 3.10 mM | –
CC/C=C/CC(=O)O [CA3HE 1:1, Choline 3-Hexenoate 1:1] | 511.17 mM | –
CCCC=CCC(=O)[O-].C[N+](C)(C)CCO [CA3HPE 1:1, Choline 3-Heptenoate 1:1] | 347.63 mM | –
C[N+](C)(C)CCO.O=C([O-])CCS [CA3MP 1:1, Choline 3-Mercaptopropionate 1:1] | 1378.42 mM | –
CCCCC/C=C/CC(=O)O [CA3NE 1:1, Choline 3-Nonenoate 1:1] | 57.50 mM | –
CCCC/C=C/CC(=O)O [CA3OE 1:1, Choline 3-Octenoate 1:1] | 92.00 mM | –
CC=CCC(=O)[O-].C[N+](C)(C)CCO [CA3PE 1:1, Choline 3-Pentenoate 1:1] | 1152.23 mM | –
CC(=O)OCC(=O)O [CAAA 1:1, Choline Acetoxyacetate 1:1] | 73.40 mM | –
CCCC(=O)[O-].C[N+](C)(C)CCO [CABA 1:1, Choline Butanoate 1:1] | 1234.35 mM | –
CCCCCCCCCCCC(=O)[O-].C[N+](C)(C)CCO [CADDA 1:1, Choline Dodecanoate 1:1] | 17.10 mM | E. coli MBC / killing efficacy concentration [1]: 17.1 mM
CCOCC(=O)[O-].C[N+](C)(C)CCO [CAEA 1:1, Choline Ethoxyacetate 1:1] | 1746.07 mM | –

Compound | E. coli MBC [1, 3] | other results
C[N+](C)(C)CCO.O=C([O-])/C=C/C(=O)O [CAFU 1:1, Choline Fumarate 1:1] | 27.17 mM | –
CC/C=C(\C)C(=O)O [CAGAS 1:1, Choline trans-2-Methyl-2-Pentenoate 1:1] | 530.73 mM | –
CC/C=C(\C)C(=O)O [CAGAS 1:2, Choline trans-2-Methyl-2-Pentenoate 1:2] | 44.60 mM | –
CCCCCC(=O)[O-].C[N+](C)(C)CCO [CAHA 1:1, Choline Hexanoate 1:1] | 483.53 mM | –
CCCCCCC(=O)[O-].C[N+](C)(C)CCO [CAHPA 1:1, Choline Heptanoate 1:1] | 101.80 mM | –
C[N+](C)(C)CCO.O=C([O-])CC(=O)O [CAMA 1:1, Choline Malonate 1:1] | 1368.53 mM | –
C[N+](C)(C)CCO.O=C([O-])C=CC(=O)O [CAME 1:1, Choline Maleate 1:1] | 38.37 mM | –
C[N+](C)(C)CCO.O=C(O)CC(O)C(=O)[O-] (centres unmarked) [CAMI 1:1, Choline Malate 1:1] | 1126.13 mM | –
CCCCCCCCC(=O)[O-].C[N+](C)(C)CCO [CANA 1:1, Choline Nonanoate 1:1] | 13.63 mM | –
CCCCCCCC(=O)[O-].C[N+](C)(C)CCO [CAOA 1:1, Choline Octanoate 1:1] | 76.63 mM | –
CCCCC(=O)[O-].C[N+](C)(C)CCO [CAPA 1:1, Choline Pentanoate 1:1] | 792.10 mM | –
CCCCCCCCCCC(=O)[O-].C[N+](C)(C)CCO [CAUA 1:1, Choline Undecanoate 1:1] | 15.50 mM | –
Choline 2-Butenoate 1:2 [CA2BE 1:2] | 158.97 mM | –
Choline 2-Decenoate 1:2 [CA2DE 1:2] | 0.77 mM | –
Choline 2-Heptenoate 1:2 [CA2HPE 1:2] | 21.33 mM | –
Choline 2-Hexenoate 1:2 [CA2HE 1:2] | 54.37 mM | –
Choline 2-Octenoate 1:2 [CA2OE 1:2] | 5.18 mM | –
Choline 2-Pentenoate 1:2 [CA2PE 1:2] | 120.10 mM | –
Choline 2-Undecenoate 1:2 [CA2UE 1:2] | 1.78 mM | MRSA MBC ([2]; Table 2, 1:2 mole ratio ILs): 1.06 mM; E. coli MBC ([1]; Table 2, comparison with MRSA): 1.78 mM
Choline 3-Butenoate 1:2 [CA3BE 1:2] | 153.33 mM | –
Choline 3-Decenoate 1:2 [CA3DE 1:2] | 0.57 mM | MRSA MBC ([2]; Table 2, 1:2 mole ratio ILs): 1.13 mM; E. coli MBC ([1]; Table 2, comparison with MRSA): 0.57 mM

Compound | E. coli MBC [1, 3] | other results
Choline 3-Heptenoate 1:2 [CA3HPE 1:2] | 18.93 mM | –
Choline 3-Hexenoate 1:2 [CA3HE 1:2] | 52.00 mM | –
Choline 3-Mercaptopropionate 1:2 [CA3MP 1:2] | 101.07 mM | –
Choline 3-Octenoate 1:2 [CA3OE 1:2] | 2.16 mM | –
Choline 3-Pentenoate 1:2 [CA3PE 1:2] | 134.83 mM | –
Choline Acetoxyacetate 1:2 [CAAA 1:2] | 12.41 mM | –
Choline Butanoate 1:2 [CABA 1:2] | 152.70 mM | –
Choline Dodecanoate 1:2 [CADDA 1:2] | 8.34 mM | MRSA MBC [2]: 0.99 mM; MRSA MBC ([2]; Table 2, 1:2 mole ratio ILs): 0.99 mM; E. coli MBC ([1]; Table 2, comparison with MRSA): 8.34 mM
Choline Ethoxyacetate 1:2 [CAEA 1:2] | 89.20 mM | –
Choline Fumarate 1:2 [CAFU 1:2] | 10.05 mM | –
Choline Heptanoate 1:2 [CAHPA 1:2] | 16.33 mM | –
Choline Hexanoate 1:2 [CAHA 1:2] | 28.23 mM | –
Choline Malate 1:2 [CAMI 1:2] | 91.80 mM | –
Choline Maleate 1:2 [CAME 1:2] | 20.00 mM | –
Choline Malonate 1:2 [CAMA 1:2] | 21.60 mM | –
Choline Nonanoate 1:2 [CANA 1:2] | 1.01 mM | –
Choline Octanoate 1:2 [CAOA 1:2] | 4.91 mM | –
Choline Pentanoate 1:2 [CAPA 1:2] | 110.37 mM | –
Choline Undecanoate 1:2 [CAUA 1:2] | 1.98 mM | MRSA MBC ([2]; Table 2, 1:2 mole ratio ILs): 2.10 mM; E. coli MBC ([1]; Table 2, comparison with MRSA): 1.98 mM
